Reference: ChEMBL document CHEMBL1201862, “PubChem BioAssay data set” (2004)
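These data come from cells grown in 96-well plates and exposed to compound for 48 hours at five concentrations. At the GI50, growth is halved.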 Active and inactive are the calls of the source. Rule as the data show it: active = GI50 up to about 1.1 µM and inactive = higher.

Assays:
Test in all cases: NCI anticancer screen, dose series, 48 h
Malme-3M = system: Malme-3M
NCI-H23 = system: NCI-H23
RPMI-8226 = system: RPMI-8226
MCF7 = system: MCF7
SK-MEL-5 = system: SK-MEL-5
HT-29 = system: HT-29
MOLT-4 = system: MOLT-4
NCI-H460 = system: NCI-H460
OVCAR-4 = system: OVCAR-4
OVCAR-8 = system: OVCAR-8
T47D = system: T47D
HOP-92 = system: HOP-92
UACC-257 = system: UACC-257
SN12C = system: SN12C
RXF 393 = system: RXF 393
Hs-578T = system: Hs-578T
NCI-H226 = system: NCI-H226
DU-145 = system: DU-145
HCC 2998 = system: HCC 2998

| SMILES | GI50 (Malme-3M) | GI50 (NCI-H23) | GI50 (RPMI-8226) | GI50 (MCF7) | GI50 (SK-MEL-5) | GI50 (HT-29) | GI50 (MOLT-4) | GI50 (NCI-H460) | GI50 (OVCAR-4) | GI50 (OVCAR-8) | GI50 (T47D) | GI50 (HOP-92) | GI50 (UACC-257) | GI50 (SN12C) | GI50 (RXF 393) | GI50 (Hs-578T) | GI50 (NCI-H226) | GI50 (DU-145) | GI50 (HCC 2998) |
| --- | --- | --- | --- | --- | --- | --- | --- | --- | --- | --- | --- | --- | --- | --- | --- | --- | --- | --- | --- |
| c1cncc(CNCCN2CCNCC2)c1 | > 100 µM (inactive) | > 100 µM (inactive) | > 100 µM (inactive) | > 100 µM (inactive) | > 100 µM (inactive) | > 100 µM (inactive) | > 100 µM (inactive) | > 100 µM (inactive) | > 100 µM (inactive) | > 100 µM (inactive) | > 100 µM (inactive) | > 100 µM (inactive) | > 100 µM (inactive) | > 100 µM (inactive) | > 100 µM (inactive) | > 100 µM (inactive) | > 100 µM (inactive) | – | – |
| O=C(c1ccccc1)n1c2ccc(Br)cc2c2nc3ccccc3nc21 | > 100 µM (inactive) | > 100 µM (inactive) | 27.7 µM (inactive) | 43.8 µM (inactive) | > 100 µM (inactive) | > 100 µM (inactive) | 46.9 µM (inactive) | 71 µM (inactive) | 48.6 µM (inactive) | > 100 µM (inactive) | – | > 100 µM (inactive) | > 100 µM (inactive) | > 100 µM (inactive) | > 100 µM (inactive) | – | > 100 µM (inactive) | > 100 µM (inactive) | > 100 µM (inactive) |
| Cc1c2c(n3c(nc4ccccc43)c1C#N)N(c1ccc(Cl)cc1)CC2 | > 100 µM (inactive) | > 100 µM (inactive) | – | > 100 µM (inactive) | > 100 µM (inactive) | > 100 µM (inactive) | – | > 100 µM (inactive) | > 100 µM (inactive) | > 100 µM (inactive) | – | > 100 µM (inactive) | > 100 µM (inactive) | > 100 µM (inactive) | > 100 µM (inactive) | > 100 µM (inactive) | > 100 µM (inactive) | > 100 µM (inactive) | > 100 µM (inactive) |
| O=C(COc1ccc2c(=O)cc(-c3ccccc3)oc2c1)N1CCN(c2ccccc2)CC1 | 51.6 µM (inactive) | 46.1 µM (inactive) | 14.2 µM (inactive) | – | 25.4 µM (inactive) | – | 11.1 µM (inactive) | 31.8 µM (inactive) | – | 26.4 µM (inactive) | – | – | 43 µM (inactive) | 41.4 µM (inactive) | 16.7 µM (inactive) | – | 72.4 µM (inactive) | – | 33.1 µM (inactive) |
| C=C(C(=O)OC)[C@@H]1C[C@@H](OC(C)=O)C2=C[C@H](C[C@@]3(C)O[C@@H]3C3=CC(C)=C(O3)[C@H]1OC(C)=O)OC2=O [BIPINNATIN I] | 13.3 µM (inactive) | 14.5 µM (inactive) | 5.75 µM (inactive) | 8.28 µM (inactive) | 15.2 µM (inactive) | 6.24 µM (inactive) | 2.16 µM (inactive) | 23.6 µM (inactive) | 35.2 µM (inactive) | 17.3 µM (inactive) | 12.7 µM (inactive) | – | 18.2 µM (inactive) | 22.4 µM (inactive) | 12 µM (inactive) | – | 90.8 µM (inactive) | 32.9 µM (inactive) | 20.4 µM (inactive) |
| O=c1c2c(c1=O)C1(SCCCS1)c1cc(Cl)ccc1O2 | > 100 µM (inactive) | > 100 µM (inactive) | > 100 µM (inactive) | > 100 µM (inactive) | > 100 µM (inactive) | > 100 µM (inactive) | > 100 µM (inactive) | > 100 µM (inactive) | > 100 µM (inactive) | > 100 µM (inactive) | – | > 100 µM (inactive) | > 100 µM (inactive) | > 100 µM (inactive) | > 100 µM (inactive) | – | > 100 µM (inactive) | > 100 µM (inactive) | > 100 µM (inactive) |
| O=C1N(c2ccccc2)C(=S)/C(=C/c2ccc(Cl)cc2)N1c1ccc(Cl)cc1 | 20.6 µM (inactive) | 44.3 µM (inactive) | 18.3 µM (inactive) | 81.1 µM (inactive) | 46.6 µM (inactive) | 59.3 µM (inactive) | 0.923 µM (active) | > 100 µM (inactive) | 28.2 µM (inactive) | 33.6 µM (inactive) | 63.8 µM (inactive) | – | 55.8 µM (inactive) | 52 µM (inactive) | 33.2 µM (inactive) | 27 µM (inactive) | – | 53 µM (inactive) | > 100 µM (inactive) |
| CCCCNC(=S)N/C=C1\C(=O)Nc2ccccc2C1=O | > 10 µM (inactive) | > 10 µM (inactive) | > 10 µM (inactive) | > 10 µM (inactive) | – | > 10 µM (inactive) | > 10 µM (inactive) | > 10 µM (inactive) | > 10 µM (inactive) | > 10 µM (inactive) | > 10 µM (inactive) | > 10 µM (inactive) | > 10 µM (inactive) | > 10 µM (inactive) | > 10 µM (inactive) | – | > 10 µM (inactive) | – | > 10 µM (inactive) |
| COC(=O)C1C2CC3C(OC(=O)C31)C2I (stereo not drawn) | > 100 µM (inactive) | > 100 µM (inactive) | > 100 µM (inactive) | – | > 100 µM (inactive) | > 100 µM (inactive) | > 100 µM (inactive) | > 100 µM (inactive) | > 100 µM (inactive) | > 100 µM (inactive) | – | > 100 µM (inactive) | > 100 µM (inactive) | > 100 µM (inactive) | > 10 µM (inactive) | – | > 100 µM (inactive) | – | > 100 µM (inactive) |
| C[n+]1c(-c2ccc(/C=N\NC(=O)c3ccc(C(=O)N/N=C/c4ccc(-c5cn6ccsc6[n+]5C)cc4)cc3)cc2)cn2ccsc21 | 21 µM (inactive) | 17.8 µM (inactive) | 14.2 µM (inactive) | 20.2 µM (inactive) | 16.5 µM (inactive) | 15.8 µM (inactive) | 15.2 µM (inactive) | 19.4 µM (inactive) | 28.8 µM (inactive) | 14.8 µM (inactive) | – | 14.8 µM (inactive) | 21.7 µM (inactive) | 19.4 µM (inactive) | 22.8 µM (inactive) | 19.9 µM (inactive) | 16.9 µM (inactive) | 18.5 µM (inactive) | 34 µM (inactive) |
| Cc1c(S(=O)(=O)c2ccccc2)c(N)n(Cc2ccccc2)c1C | > 100 µM (inactive) | > 100 µM (inactive) | > 100 µM (inactive) | > 100 µM (inactive) | > 100 µM (inactive) | > 100 µM (inactive) | > 100 µM (inactive) | > 100 µM (inactive) | 85.7 µM (inactive) | > 100 µM (inactive) | – | > 100 µM (inactive) | > 100 µM (inactive) | > 100 µM (inactive) | 76.6 µM (inactive) | 53.1 µM (inactive) | > 100 µM (inactive) | > 100 µM (inactive) | > 100 µM (inactive) |
| CC(=O)O[C@]12CCCCCC1C1(O)C(O)CCC[C@H]12 (stereo partly drawn) | > 100 µM (inactive) | > 100 µM (inactive) | > 100 µM (inactive) | – | > 100 µM (inactive) | > 100 µM (inactive) | > 100 µM (inactive) | > 100 µM (inactive) | > 100 µM (inactive) | > 100 µM (inactive) | – | – | > 100 µM (inactive) | > 100 µM (inactive) | > 100 µM (inactive) | – | > 100 µM (inactive) | – | – |
